From US10597388B2, “Pyridazinone herbicides” (FMC CORPORATION, priority 2014, dated 2020)

Tests used:
Test in all cases: Test C greenhouse herbicide test, pre- and postemergence
Format in all cases: in vivo
[1] = tested on: lambsquarters (Chenopodium album)
How it was run: (§1)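 Visual ratings on a 0 to 100 scale (0 = no effect, 100 = complete control) versus untreated controls, scored 13–15 d after treatment. Soil-applied preemergence to seeded loam/sand; foliar postemergence to 1- to 4-leaf plants (2–18 cm) in peat-vermiculite mix; compounds formulated in solvent plus surfactant.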

[2] = tested on: barnyardgrass (Echinochloa crus-galli)
How it was run: as §1

[3] = tested on: galium (catchweed bedstraw, Galium aparine)
How it was run: as §1

[4] = tested on: wheat (winter wheat, Triticum aestivum)
How it was run: as §1

[5] = tested on: foxtail, giant (giant foxtail, Setaria faberii)
How it was run: as §1

[6] = tested on: crabgrass, large (large crabgrass, Digitaria sanguinalis)
How it was run: as §1

[7] = tested on: oilseed rape (Brassica napus)
How it was run: as §1

[8] = tested on: blackgrass (Alopecurus myosuroides)
How it was run: as §1

[9] = tested on: pigweed (Amaranthus retroflexus)
How it was run: as §1

[10] = tested on: velvetleaf (Abutilon theophrasti)
How it was run: as §1

[11] = tested on: waterhemp (common waterhemp, Amaranthus rudis)
How it was run: as §1

corn (Zea mays) = tested on: corn (Zea mays)
How it was run: as §1

[12] = tested on: ryegrass, Italian (Italian ryegrass, Lolium multiflorum)
How it was run: as §1

[13] = tested on: morningglory (Ipomoea coccinea)
How it was run: as §1

[14] = tested on: ragweed (common ragweed, Ambrosia elatior)
How it was run: as §1

[15] = Postemergence, 31 g ai/ha, scale 0 to 100 (0 no effect, 100 complete control)
[16] = Postemergence, 62 g ai/ha, 0 to 100 scale (0 no effect, 100 complete control)
[17] = Postemergence, 250 g ai/ha, scale 0 to 100, 0 no effect, 100 complete control, 13 to 15 d
[18] = Preemergence, 31 g ai/ha, scale 0 to 100, 0 is no effect, 100 is complete control
[19] = Preemergence, 62 g ai/ha, scale 0 to 100, 0 is no effect, 100 is complete control
[20] = Preemergence, 125 g ai/ha, scale 0 to 100, 0 is no effect, 100 is complete control
[21] = Preemergence, 250 g ai/ha, scale 0 to 100, 0 no effect, 100 complete control
[22] = postemergence, 125 g ai/ha, scale 0 to 100, 0 no effect, 100 complete control

Cc1nn(C)c(=O)c(-c2ccc(Cl)c3ccccc23)c1O [Compound 139]
Plant response rating, Lambsquarters [1, 15]: 98
Lambsquarters plant response rating [1, 16]: 95
Plant response rating, Lambsquarters [1, 17]: 100
Plant response rating, Lambsquarters [1, 18]: 100
Plant response rating, Lambsquarters [1, 19]: 90
Plant response rating, Lambsquarters [1, 20]: 95
Lambsquarters plant response rating [1, 21]: 98
Lambsquarters plant response rating [1, 22]: 100
Plant response rating, Barnyardgrass [2, 15]: 25
Barnyardgrass plant response rating [2, 16]: 20
Plant response rating, Barnyardgrass ([2]; Postemergence, 125 g ai/ha, scale 0 to 100, 0 is no effect, 100 is complete control): 40
Plant response rating, Barnyardgrass [2, 17]: 60
Plant response rating, Barnyardgrass [2, 18]: 20
Plant response rating, Barnyardgrass [2, 19]: 55
Plant response rating, Barnyardgrass [2, 20]: 75
Barnyardgrass plant response rating [2, 21]: 95
Plant response rating, Galium [3, 15]: 95
Galium plant response rating [3, 16]: 95
Plant response rating, Galium [3, 17]: 100
Plant response rating, Galium [3, 18]: 90
Plant response rating, Galium [3, 19]: 90
Plant response rating, Galium [3, 20]: 100
Galium plant response rating [3, 21]: 100
Galium plant response rating [3, 22]: 100
Plant response rating, Wheat [4, 15]: 45
Wheat plant response rating [4, 16]: 55
Plant response rating, Wheat [4, 17]: 90
Plant response rating, Wheat [4, 18]: 0
Plant response rating, Wheat [4, 19]: 10
Plant response rating, Wheat [4, 20]: 15
Wheat plant response rating [4, 21]: 10
Wheat plant response rating [4, 22]: 60
Plant response rating, Foxtail, Giant [5, 15]: 20
Foxtail, Giant plant response rating [5, 16]: 30
Plant response rating, Foxtail, Giant [5, 17]: 60
Plant response rating, Foxtail, Giant [5, 18]: 35
Plant response rating, Foxtail, Giant [5, 19]: 65
Plant response rating, Foxtail, Giant [5, 20]: 85
Foxtail, Giant plant response rating [5, 21]: 95
Foxtail, Giant plant response rating [5, 22]: 30
Plant response rating, Crabgrass, Large [6, 15]: 20
Crabgrass, Large plant response rating [6, 16]: 10
Plant response rating, Crabgrass, Large [6, 17]: 40
Plant response rating, Crabgrass, Large [6, 18]: 5
Plant response rating, Crabgrass, Large [6, 19]: 30
Plant response rating, Crabgrass, Large [6, 20]: 20
Crabgrass, Large plant response rating [6, 21]: 50
Crabgrass, Large plant response rating [6, 22]: 30
Plant response rating, Oilseed Rape [7, 15]: 95
Oilseed Rape plant response rating [7, 16]: 95
Plant response rating, Oilseed Rape [7, 17]: 95
Plant response rating, Oilseed Rape [7, 18]: 20
Plant response rating, Oilseed Rape [7, 19]: 98
Plant response rating, Oilseed Rape [7, 20]: 98
Oilseed Rape plant response rating [7, 21]: 100
Oilseed Rape plant response rating [7, 22]: 98
Plant response rating, Blackgrass [8, 15]: 20
Blackgrass plant response rating [8, 16]: 50
Plant response rating, Blackgrass [8, 17]: 10
Plant response rating, Blackgrass [8, 18]: 50
Plant response rating, Blackgrass [8, 19]: 55
Plant response rating, Blackgrass [8, 20]: 60
Blackgrass plant response rating [8, 21]: 90
Blackgrass plant response rating [8, 22]: 60
Plant response rating, Pigweed [9, 15]: 80
Pigweed plant response rating [9, 16]: 95
Plant response rating, Pigweed [9, 17]: 98
Plant response rating, Pigweed [9, 18]: 70
Plant response rating, Pigweed [9, 19]: 98
Plant response rating, Pigweed [9, 20]: 100
Pigweed plant response rating [9, 21]: 100
Pigweed plant response rating [9, 22]: 98
Plant response rating, Velvetleaf [10, 15]: 70
Velvetleaf plant response rating [10, 16]: 80
Plant response rating, Velvetleaf [10, 17]: 100
Plant response rating, Velvetleaf [10, 18]: 60
Plant response rating, Velvetleaf [10, 19]: 85
Plant response rating, Velvetleaf [10, 20]: 100
Velvetleaf plant response rating [10, 21]: 100
Velvetleaf plant response rating [10, 22]: 95
Plant response rating, Waterhemp [11, 15]: 98
Waterhemp plant response rating [11, 16]: 100
Plant response rating, Waterhemp [11, 17]: 100
Plant response rating, Waterhemp [11, 18]: 100
Plant response rating, Waterhemp [11, 19]: 100
Plant response rating, Waterhemp [11, 20]: 100
Waterhemp plant response rating [11, 21]: 100
Waterhemp plant response rating [11, 22]: 100
Plant response rating, Corn (corn (Zea mays); [15]): 5
Corn plant response rating (corn (Zea mays); [16]): 0
Plant response rating, Corn (corn (Zea mays); [17]): 15
Plant response rating, Corn (corn (Zea mays); [18]): 0
Plant response rating, Corn (corn (Zea mays); [19]): 0
Plant response rating, Corn (corn (Zea mays); [20]): 10
Corn plant response rating (corn (Zea mays); [21]): 15
Corn plant response rating (corn (Zea mays); [22]): 15
Plant response rating, Ryegrass, Italian [12, 15]: 5
Ryegrass, Italian plant response rating [12, 16]: 10
Plant response rating, Ryegrass, Italian [12, 17]: 60
Plant response rating, Ryegrass, Italian [12, 18]: 95
Plant response rating, Ryegrass, Italian [12, 19]: 100
Plant response rating, Ryegrass, Italian [12, 20]: 100
Ryegrass, Italian plant response rating [12, 21]: 100
Ryegrass, Italian plant response rating [12, 22]: 35
Plant response rating, Morningglory [13, 15]: 98
Morningglory plant response rating [13, 16]: 100
Plant response rating, Morningglory [13, 17]: 100
Plant response rating, Morningglory [13, 18]: 85
Plant response rating, Morningglory [13, 19]: 90
Plant response rating, Morningglory [13, 20]: 95
Morningglory plant response rating [13, 21]: 98
Morningglory plant response rating [13, 22]: 100
Plant response rating, Ragweed [14, 15]: 0
Ragweed plant response rating [14, 16]: 0
Plant response rating, Ragweed [14, 17]: 0
Plant response rating, Ragweed [14, 18]: 75
Plant response rating, Ragweed [14, 19]: 90
Plant response rating, Ragweed [14, 20]: 95
Ragweed plant response rating [14, 21]: 100
Ragweed plant response rating [14, 22]: 0
